Experimental findings from patent publication US20080300263A1, “Pyrazolo [1,5-a] pyrimidine compounds and pharmaceutical compositions containing them” (EiRx Therapeutics plc, priority 2005, published 2008) are described below.

Read-outs that look alike come from different tables or passages of the source.

Assay [1] deals with PC3 Prostate carcinoma (bone metastasis). Description: Primary high-throughput screen, Alamar Blue, adherent cells. The format is cell-based. The following applies: compound at 10 μM, 72 h; read-out: percentage kill, PC3. As for the experimental part: (§1) Adherent cells are plated at a pre-determined seeding density (Table 1) in flat-bottom 96 well plates 24 hours prior to drug treatment. The cell lines are plated in 100 μl volumes in each well. Cells are plated in all wells apart from those in Column 12 which contain 100 μL normal culture medium alone. These plates will be known as the Test Plates. The Test Plates are labelled with a Daughter Plate ID.
(§2) Daughter Plates containing 10 μl of a […] solution of test compound selected from among the candidate compounds stored at […] are thawed at room temperature. A 10 μL volume of 0.1% DMSO in PBS is added to all wells of Column 12 and the wells in Row A-F of Column 1. A 10 μl volume of a pre-determined concentration of the P13-Kinase inhibitor LY294002 is added to wells in Row G and H of Column 1. A 90 μl volume of the appropriate cell culture medium is then added to each well and mixed by repeated aspiration/dispensing. The compounds are at a final test concentration of 10 μM.
(§3) Once the Daughter Plates have been prepared the media is removed from all wells of the cell culture plate using an 8-Channel Vacuum Aspirator. The contents of the Daughter Plates are then transferred to the appropriate wells of their relevant Test Plates and the Test Plates are incubated for 72 h at 37° C. and 5% CO2. At the end of this period Test Plates are assayed by Alamar Blue. A 10 μl volume of Alamar Blue is added to all wells of the Test Plate. The Test Plates are incubated for […] at 37° C. and 5% CO2 and finally read using the BioTek SYNERGY plate reader (Excitation 530125 nm-Emission 590135 nm). Percentage inhibition is determined using Microsoft Excel spreadsheet calculations.
(§4) The figures appearing in the columns are the percentage kill achieved by that compound at 10 μM.

The subject of assay [2] is SW480 Colon adenocarcinoma (Dukes' type B). The assay is described as above. The format is cell-based. The following applies: Homo sapiens, compound at 10 μM, 72 h, read-out: percentage kill, SW480. As for the experimental part: as §1, §2, §3, §4
In assay [3] the test system is LS123 Colon adenocarcinoma (Dukes' type B). The description is as above. It counts as cell-based. Conditions: Homo sapiens, LS-123; compound at 10 μM, 72 h; read-out: percentage kill, LS123. On the procedure:
as §1, §2, §3, §4

The subject of assay [4] is U1810 Non Small Cell Lung Carcinoma. The assay is described as above. The following applies: U-1810; compound at 10 μM, 72 h; read-out: percentage kill, U1810. The format is cell-based. On the procedure:
as §1, §2, §3, §4

Assay [5] relates to NCI ADR RES Breast adenocarcinoma (pleural effusion). The assay is described as above. The format is cell-based. The following applies: Homo sapiens, compound at 10 μM, 72 h, read-out: percentage kill, NCI ADR RES. As for the experimental part:
as §1, §2, §3, §4

For assay [6], the system named is HT29 Colorectal adenocarcinoma. The description is as above. It counts as cell-based. The following applies: Homo sapiens, HT-29; compound at 10 μM, 72 h; read-out: percentage kill, HT29. As for the experimental part: as §1, §2, §3, §4
Assay [7] has as its system A549 Non Small Cell Lung Carcinoma. Described as above. The format is cell-based. The following applies: Homo sapiens, compound at 10 μM, 72 h, read-out: percentage kill, A549. As for the experimental part:
as §1, §2, §3, §4

Assay [8] relates to CACO2 Colon adenocarcinoma. The assay is described as above. It counts as cell-based. Conditions: Homo sapiens, Caco-2; compound at 10 μM, 72 h; read-out: percentage kill, CAC02. As for the experimental part: as §1, §2, §3, §4
Assay [9] has as its system MCF7 Mammary gland adenocarcinoma. The description is as above. The following applies: Homo sapiens, compound at 10 μM, 72 h, read-out: percentage kill, MCF7. The format is cell-based. As for the experimental part:
as §1, §2, §3, §4

The next assay deals with FRAT2-C9M-TF1 cells. Description: EC50 titration, Alamar Blue, suspension cells. It counts as cell-based, Human. Conditions: Homo sapiens, 72 h, Alamar Blue. On the procedure: (§5) On the day of the assay compounds are used to prepare dilution series on Titration Plates which are plated at ten times their final screening concentration in 10 μl aliquots.
(§6) Suspension cells are split 24 hours prior to drug treatment in order to bring the cultures into the log phase of growth. On the day of the assay the cells are plated directly into the Titration Plates at the appropriate pre-determined seeding density (Table 1) in 90 μl volumes thus reducing the concentration of the compounds to their final test concentration. The plates are incubated for 72 hours at 37° C. and 5% CO2 after which time they are assayed by Alamar Blue.
(§7) The EC50 values are calculated using the values obtained from the Alamar Blue readout which are converted into a “Percentage of the Untreated Control” and using Graph Pad Prism these values are plotted against the logarithm of the test concentration. Using a non-linear regression analysis a sigmoidal dose-response curve is generated from which the EC50 is determined.

Assay [10] concerns C9M-TF1 cells. Description: EC50 titration, Alamar Blue, suspension cells. The format is cell-based. Conditions: Homo sapiens, 72 h. On the procedure: as §5, §6, §7
Background: The colour change of resazurin is a common sign of viable cells or microbes.

The test system of assay [11] is FRAT2 overexpresing TF1 (FRAT2-C9M-TF1 cells). Description: Primary high-throughput screen, Alamar Blue, suspension cells. The format is cell-based. The following applies: Homo sapiens, compound at 10 μM, 72 h. As for the experimental part:
as §2, §3
(§8) Suspension cells are split 24 hours prior to drug treatment in order to bring the cultures into the log phase of growth. On the day of the assay the cells are plated directly into the Daughter Plates at the appropriate pre-determined seeding density (Table 1) in 90 μl volumes, the concentration of the test compounds thus being reduced to 10 μM. Cells are plated in all wells apart from those in Column 12 which contain 901 normal culture medium alone. The plates are incubated for 72 h at 37° C. and 5% CO2 after which time they are assayed by Alamar Blue as per the preceding example.
as §4

In assay [12] the test system is C9M-TF1 cells. The description is as above. The format is cell-based. The following applies: Homo sapiens, 72 h, compound at 10 μM, read-out: percentage kill, C9M. As for the experimental part:
as §2, §3, §8, §4

For assay [13], the system named is colon cancer cell line HT29. Description: EC50 titration, Alamar Blue, adherent cells. The format is cell-based. The following applies: Homo sapiens, HT-29, 72 h. On the procedure: as §5
(§9) For adherent cell lines plated 24 hours previously, a 90 μl volume of the appropriate cell culture medium is then added to each well of the Titration Plates and mixed by repeated aspiration/dispensing, thus taking the compounds to their final test concentration. Once the Titration Plates have been prepared the media is removed from all wells of the cell culture plate and the contents of the Titration Plates are then transferred to the appropriate wells of their relevant Test Plates and incubated for 72 h at 37° C. and 5% CO2 after which time they are assayed by Alamar Blue. Using a combination of Microsoft Excel and Graph Pad Prism, EC50s are determined.
as §7

Assay [14] relates to non-transformed breast cell line MCF10A. Description: EC50 titration, Alamar Blue, adherent cells. The format is cell-based. The following applies: Homo sapiens, MCF-10A, 72 h. On the procedure: as §5, §9, §7
The test system of assay [15] is breast cancer cell line MCF7. Description: EC50 titration, Alamar Blue, adherent cells. It counts as cell-based. The following applies: Homo sapiens, 72 h. On the procedure: as §5, §9, §7
The mark [16] stands for this setting: minus GMCSF, read-out: percentage kill, FRAT2−.
Where [17] appears, read: plus GMCSF, read-out: percentage kill, FRAT2+.

`COc1cccc(-c2cnn3c(NCc4ccccn4)ccnc23)c1` [Compound 1]: the inhibition at 10 µM in assay [1] was -4%; in assay [2], 33%; in assay [3] it was 91%; in assay [4], 15%; in [5], 58%; in assay [6], 58%. In addition, the inhibition at 10 µM is 34% in assay [7]; 61% in assay [8]; 68% in assay [9]; 54% in assay [11] (setting [16]); 28% in assay [11] (setting [17]); -1% with C9M-TF1 cells [12] (first C9M column). Further, the inhibition at 10 µM in the assay on C9M-TF1 cells [12] (second C9M column) was found to be 2%. The 50% effective concentration (EC50) in the assay on FRAT2-C9M-TF1 cells (absence of growth factor) was 11.8 µM; in the assay on FRAT2-C9M-TF1 cells (presence of growth factor), 12.9 µM; in the assay on C9M-TF1 cells [10], 26 µM; in assay [13], 3.98 µM; in assay [14], 18.6 µM; in assay [15] it was 3.8 µM.
`COc1ccc(-c2cnn3c(NCc4ccccn4)ccnc23)c(OC)c1` [Compound 4]: the inhibition at 10 µM in assay [1] is -4%; in assay [2], 53%; in [3] it was 92%; in assay [4] it was 16%; in [5], 67%; in [6] it was 71%. The inhibition at 10 µM in [7] is 12%; in [8], 35%; in [9], 64%; in [11] (setting [16]) it was 71%; in assay [11] (setting [17]) it was 36%; with C9M-TF1 cells [12] (first C9M column), 1%. Besides, the inhibition at 10 µM in the assay on C9M-TF1 cells [12] (second C9M column) worked out at 1%. Also, the EC50 amounted to 2.75 µM in the assay with FRAT2-C9M-TF1 cells (absence of growth factor); 5.62 µM in the assay with FRAT2-C9M-TF1 cells (presence of growth factor); 21.4 µM with C9M-TF1 cells [10]; 1.58 µM in assay [13]; 14.5 µM in [14]; 1.78 µM in [15].
As to `c1ccc(-c2cnn3c(NCc4ccccn4)ccnc23)cc1` [Compound 5], the inhibition at 10 µM in assay [1] is -92%; in assay [2] it was 62%; in assay [3], 87%; in [4] it was 24%; in assay [5] it was 63%; in [6], 75%. Moreover, the inhibition at 10 µM was determined as 10% in [7]; 78% in [8]; 87% in [9]; 61% in assay [11] (setting [16]); 42% in assay [11] (setting [17]); 1% in the assay with C9M-TF1 cells [12] (first C9M column). Moreover, the inhibition at 10 µM in the assay on C9M-TF1 cells [12] (second C9M column) was -11%. Moreover, the EC50 in the assay on FRAT2-C9M-TF1 cells (absence of growth factor) stood at 3.63 µM; in the assay with FRAT2-C9M-TF1 cells (presence of growth factor), 5.75 µM; with C9M-TF1 cells [10], 16.6 µM; in assay [13], 1.58 µM; in assay [14], 12.9 µM; in assay [15] it was 1.51 µM.
As for `Fc1ccc(-c2cnn3c(NCc4ccccn4)ccnc23)cc1Cl` [Compound 11], the inhibition at 10 µM in [1] was -85%; in assay [2] it was -6%; in [3] it was 22%; in assay [4], 13%; in [5], 18%; in assay [6], 25%. In addition, the inhibition at 10 µM in assay [7] is 5%; in [8], 61%; in assay [9], 22%; in [11] (setting [16]) it was 71%; in assay [11] (setting [17]), 35%; in the assay with C9M-TF1 cells [12] (first C9M column), 1%. Also, the inhibition at 10 µM with C9M-TF1 cells [12] (second C9M column) is -6%.
In the case of `ClCc1ccccc1-c1cnn2c(NCc3cccs3)ccnc12` [Compound 12], the inhibition at 10 µM in [1] is -45%; in assay [2], -22%; in assay [3], 31%; in [4], 18%; in assay [5], -12%; in assay [6], -5%. In addition, the inhibition at 10 µM in [7] is 4%; in [8], 17%; in [9], 36%; in assay [11] (setting [16]), 52%; in assay [11] (setting [17]), 19%; in the assay on C9M-TF1 cells [12] (first C9M column), 0%. Besides, the inhibition at 10 µM with C9M-TF1 cells [12] (second C9M column) worked out at 0%.
Regarding `c1ccc(CNc2ccnc3c(-c4ccc(N5CCOCC5)cc4)cnn23)nc1` [Compound 13], the inhibition at 10 µM was -37% in assay [1]; -4% in assay [2]; 55% in assay [3]; 13% in assay [4]; 28% in assay [5]; -13% in assay [6]. The inhibition at 10 µM in [7] is 18%; in [8], 27%; in assay [9], 56%; in assay [11] (setting [16]), 61%; in assay [11] (setting [17]), 38%; in the assay with C9M-TF1 cells [12] (first C9M column), -1%. The inhibition at 10 µM in the assay on C9M-TF1 cells [12] (second C9M column) is -1%.
Take `Clc1cccc(Nc2ccn3ncc(-c4ccncc4)c3n2)c1` [Compound 14]: the inhibition at 10 µM is -4% in assay [1]; 10% in assay [2]; 13% in [3]; 2% in assay [4]; 2% in assay [5]; 51% in assay [6]. In addition, the inhibition at 10 µM in assay [7] is 26%; in [8] it was 46%; in [9] it was 26%; in assay [11] (setting [16]), 50%; in [11] (setting [17]), 38%; with C9M-TF1 cells [12] (first C9M column) it was 45%. Moreover, the inhibition at 10 µM in the assay on C9M-TF1 cells [12] (second C9M column) is 27%.

What is called EC50 is the concentration at which the effect is half-maximal.
